Results: paper PMC7433010, “Exploration of multi‐target effects of 3‐benzoyl‐5‐hydroxychromen‐2‐one in Alzheimer’s disease cell and mouse models” (Aging Cell, 2020)

Legend:
NeuN = experiment: Immunohistochemistry of NeuN in hippocampus of STZ‐treated 3 × Tg‐AD mice; format: in vivo, mouse; conditions: – STZ 100%
Procedure: Mice harboring APPSwe, PS1M146V, and […] transgenes (3×Tg-AD) (Oddo et al., 2003) were purchased from the Jackson Laboratory (004807; Bar Harbor, ME, USA). Six-month-old male homozygous 3×Tg-AD mice were group housed at 20–25°C and 60% relative humidity under a daily 12-h light/12-h dark cycle, with assess to food and water ad libitum. Mice were randomly divided into 3 groups: – streptozocin (STZ), STZ, and STZ/LM-031 (n = 10 per group). STZ-induced hyperglycemia was used to accelerate the development of AD phenotype (Chen et al., 2014). Briefly, the mice were fasted for 12 h each day prior to intraperitoneal (i.p.) injection of STZ ([…]; Sigma-Aldrich) or vehicle (0.1 M sodium citrate pH4.5) for 4 times (days 2, 3, 9, and 10) (Chen et al., 2019). Mouse body weight was measured and blood glucose level was measured on days 1, 8, 15, 22, and 29 using a blood glucose meter (Bioland Technology, Taipei, Taiwan). LM-031 (40 mg/kg) or vehicle (DMSO:Cremophor EL:0.9% saline = 1:2:7) was intraperitoneally injected every day for 22 days from days 15 to 36. All animal procedures were ethically approved by the Institutional Animal Care and Use Committee of National Taiwan Normal University, Taipei, Taiwan (Permit Number: 103002) and were conducted in compliance with the ARRIVE (Animal Research: Reporting In Vivo Experiments) guidelines.
Mouse brains were removed, postfixed in 4% paraformaldehyde overnight, and cryopreserved in 30% sucrose solution at 4°C. Series of coronal brain sections (30 µm) were cut in a cryostat (Leica RM2125 RTS, Leica, Wetzlar, Germany). Heat-induced antigen retrieval for immunohistochemistry (IHC) was performed using antigen retrieval buffer (pH9.0, Thermo Fisher Scientific) to break methylene bridges and expose antigenic sites, allowing antibodies to bind. […] The sections were then washed and detected by using the UltraVision™ Quanto detection system containing horseradish peroxidase and chromogenic diaminobenzidine substrate (Thermo Fisher Scientific). […]

[1] = Body weight in STZ‐treated 3 × Tg‐AD mice; format: in vivo, mouse; conditions: 40 mg/kg i.p.; among the three groups
Procedure: For the in vivo LM‐031 treatment experiments, 6‐month‐old male homozygous 3 × Tg‐AD mice (n = 10 per group) were used. Mice were randomly divided into three groups: – streptozocin (STZ), STZ, and STZ/LM‐031. STZ‐induced hyperglycemia was used to accelerate the development of AD phenotype. Mouse body weight and blood glucose level were measured on days 1, 8, 15, 22, and 29. LM‐031 (40 mg/kg) or vehicle (DMSO:Cremophor EL:0.9% saline = 1:2:7) was intraperitoneally injected every day for 22 days from days 15 to 36. All animal procedures were ethically approved by the Institutional Animal Care and Use Committee of National Taiwan Normal University, Taipei, Taiwan (Permit Number: 103002) and were conducted in compliance with the ARRIVE (Animal Research: Reporting In Vivo Experiments) guidelines. Open‐field task, Y‐maze task, Morris water maze task, and immunohistochemistry and image analysis were performed.
Mice harboring APPSwe, PS1M146V, and […] transgenes (3×Tg-AD) (Oddo et al., 2003) were purchased from the Jackson Laboratory (004807; Bar Harbor, ME, USA). […] Mouse body weight was measured and blood glucose level was measured on days 1, 8, 15, 22, and 29 using a blood glucose meter (Bioland Technology, Taipei, Taiwan). […]

ERK1/2 = experiment: Western blot of ERK1/2 in ∆K280 TauRD‐DsRed SH‐SY5Y cells; format: cell-based, human
Procedure: Total proteins from ∆K280 TauRD-DsRed SH-SY5Y cells were obtained using a RIPA buffer containing 50 mM Tris-HCl (pH8.0), 150 mM NaCl, 2 mM EDTA (pH8.0), 50 mM NaF, 0.1% SDS, 0.5% sodium deoxycholate, 1% NP40, and a protease inhibitor cocktail (Sigma-Aldrich). After sonication and sitting on ice for 20 min, the lysates were centrifuged at 14,000 × g for 30 min at 4°C. Protein concentrations were determined using a protein assay kit (Bio-Rad, Hercules, CA, USA), with albumin as a standard. Total proteins (20 µg) were electrophoresed on 10% or 12% SDS-polyacrylamide gel and transferred onto polyvinylidene difluoride (PVDF) membranes (Sigma-Aldrich) through reverse electrophoresis. […] Subsequently, immune complexes were detected using a horseradish peroxidase-conjugated goat anti-mouse or goat anti-rabbit IgG antibody (1:5000; GeneTex, Irvive, CA, USA) and a chemiluminescent substrate (Millipore).
Figure S4. ΔK280 TauRD-DsRed SH-SY5Y cells. […] On day 9, neurite outgrowth and caspase 3 activity were measured. In addition, expression of HSPB1, NRF2, and CREB pathways were assessed. (b) Relative AKT, pAKT, ERK, and pERK protein levels analyzed through immunoblotting. […]

O=C(c1ccccc1)c1cc2c(O)cccc2oc1=O [LM‐031, 3‐benzoyl‐5‐hydroxychromen‐2‐one]
NeuN level, CA1 (NeuN; STZ 89%): 96% | NeuN level, dentate gyrus (DG) (NeuN; STZ 90%): 97% | NeuN level, CA3 (NeuN; STZ 91%): 95% | body weight [1]: No significant change | ERK1/2 level (ERK1/2): not notably affected
